Laboratory results reported in patent US12558428B2, “Heterobifunctional compounds and their use in treating disease” (Halda Therapeutics OpCo, Inc., priority 2024, dated 2026).
Read-outs that look alike come from different tables or passages of the source.

Tests used:
Assay type in all cases: cell-based
[1] = system: T-Rex 293 cells having increased expression of estrogen receptor alpha protein; assay: Cellular growth inhibition assay, T-Rex 293 cells, (+) doxycycline; conditions: Table 7-A, T-Rex 293 cells with doxycycline (increased ERα expression), 72 hours, CellTiter-Glo, read-out: (+) Dox GI50
How it was run: (§1)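 Cells of an inducible ERα-expressing T-Rex 293 clone are seeded in charcoal-dextran FBS medium with or without 3 ng/mL doxycycline, then treated after 24 h with compound dilutions (0.5% DMSO) for 72 h. Growth inhibition is measured by CellTiter-Glo luminescence and expressed as GI50.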

[2] = system: T-Rex 293 cells lacking increased expression of estrogen receptor alpha protein; assay: Cellular growth inhibition assay, T-Rex 293 cells, (−) doxycycline; conditions: Table 7-A, T-Rex 293 cells without doxycycline (lacking increased ERα expression), 72 hours, CellTiter-Glo, read-out: (−) Dox GI50
How it was run: as §1

[3] = system: MCF7 cells (ATCC #HTB-22); assay: Cellular growth inhibition assay, MCF7 cells purchased from ATCC; conditions: Table 8-A, MCF7 cells purchased from ATCC, six days, CellTiter-Glo, read-out: GI50
How it was run: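 GI50 values come from a four-parameter fit of CellTiter-Glo 2.0 luminescence after six days of compound exposure at 37° C. Seeding density depended on the source: 225 cells/well for ECACC MCF7, 1,500 for ATCC. Medium was RPMI 1640 with 10% FBS and 0.2 U/ml insulin.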

GI50 ([3]; Homo sapiens, MCF7, 144 h) [nM] | GI50 [3] [nM] | SMILES | GI50 ([1]; T-REx-293, 72 h) [nM] | GI50 ([2]; T-REx-293, 72 h) [nM] | GI50 [1] [nM] | GI50 [2] [nM]
500 to 2500 | – | Cc1sc2c(c1C)C(c1ccc(CC3CC4(CCN(c5ccc([C@H]6c7ccc(O)cc7CC[C@H]6c6ccccc6)cc5)CC4)C3)cc1)=N[C@@H](C)c1nnc(C)n1-2 [III-15] | 500 to 2500 | 500 to 2500 | – | –
50 to 500 | – | Cc1sc2c(c1C)C(c1ccc(N3CCN(CCOc4ccc([C@@H]5c6ccc(O)cc6CC[C@@H]5c5ccccc5)cc4)CC3)cc1)=N[C@@H](C)c1nnc(C)n1-2 [III-16] | 50 to 500 | 50 to 500 | – | –
500 to 2500 | – | Cc1sc2c(c1C)C(c1ccc(N3CCN(CCOc4ccc([C@H]5c6ccc(O)cc6CC[C@H]5c5ccccc5)cc4)CC3)cc1)=N[C@@H](C)c1nnc(C)n1-2 [III-17] | 500 to 2500 | 500 to 2500 | – | –
500 to 2500 | – | Cc1sc2c(c1C)C(c1ccc(C#CC3CC4(CCN(c5ccc([C@H]6c7ccc(O)cc7CC[C@H]6c6ccccc6)cc5)CC4)C3)cc1)=N[C@@H](C)c1nnc(C)n1-2 [III-18] | > 2500 | > 2500 | – | –
> 2500 | – | Cc1sc2c(c1C)C(c1ccc(C#CC3CC4(CCN(c5ccc([C@@H]6c7ccc(O)cc7CC[C@@H]6c6ccccc6)cc5)CC4)C3)cc1)=N[C@H](Cc1ncco1)c1nnc(C)n1-2 [III-19] | > 2500 | > 2500 | – | –
> 2500 | – | Cc1sc2c(c1C)C(c1ccc(C#CC3CC4(CCN(c5ccc([C@H]6c7ccc(O)cc7CC[C@H]6c6ccccc6)cc5)CC4)C3)cc1)=N[C@H](Cc1ncco1)c1nnc(C)n1-2 [III-20] | > 2500 | > 2500 | – | –
500 to 2500 | – | Cc1sc2c(c1C)C(c1ccc(C#CC3CC4(CCN(c5ccc([C@H]6c7ccc(O)cc7CC[C@H]6c6ccccc6)cc5)CC4)C3)cc1)=N[C@@H](Cc1ncco1)c1nnc(C)n1-2 [III-21] | 500 to 2500 | > 2500 | – | –
50 to 500 | – | Cc1sc2c(c1C)C(c1ccc(C3CCN(C[C@@H]4[C@H]5CN(c6ccc([C@H]7c8ccc(O)cc8CC[C@H]7c7ccccc7)cc6)C[C@@H]45)CC3)cc1)=N[C@@H](C)c1nnc(C)n1-2 [III-22] | < 50 | 500 to 2500 | – | –
50 to 500 | – | Cc1sc2c(c1C)C(c1ccc(N3CCN(C[C@@H]4[C@H]5CN(c6ccc([C@@H]7c8ccc(O)cc8CC[C@@H]7c7ccccc7)cc6)C[C@@H]45)CC3)cc1)=N[C@@H](C)c1nnc(C)n1-2 [III-23] | < 50 | > 2500 | – | –
50 to 500 | – | Cc1sc2c(c1C)C(c1ccc(N3CCC(O)(CN4CCC(c5ccc([C@H]6c7ccc(O)cc7CC[C@H]6c6ccccc6)cc5)CC4)CC3)cc1)=N[C@@H](C)c1nnc(C)n1-2 [III-24] | < 50 | 50 to 500 | – | –
< 50 | – | Cc1sc2c(c1C)C(c1ccc(N3CCC(O)(CN4CCC(c5ccc([C@@H]6c7ccc(O)cc7CC[C@@H]6c6ccccc6)cc5)CC4)CC3)cc1)=N[C@@H](C)c1nnc(C)n1-2 [III-25] | < 50 | 500 to 2500 | – | –
50 to 500 | – | Cc1sc2c(c1C)C(c1ccc(C3CCN(CC4(O)CCN(c5ccc([C@@H]6c7ccc(O)cc7CC[C@@H]6c6ccccc6)cc5)CC4)CC3)cc1)=N[C@@H](C)c1nnc(C)n1-2 [III-26] | < 50 | 50 to 500 | – | –
50 to 500 | – | Cc1sc2c(c1C)C(c1ccc(C3CCN(CC4(O)CCN(c5ccc([C@H]6c7ccc(O)cc7CC[C@H]6c6ccccc6)cc5)CC4)CC3)cc1)=N[C@@H](C)c1nnc(C)n1-2 [III-27] | < 50 | 50 to 500 | – | –
50 to 500 | – | Cc1sc2c(c1C)C(c1ccc(N[C@H]3CCN(CCOc4ccc([C@@H]5c6ccc(O)cc6CC[C@@H]5c5ccccc5)cc4)C3)cc1)=NC(Cc1ncco1)c1nnc(C)n1-2 (stereo partly drawn) [III-28] | 50 to 500 | 50 to 500 | – | –
50 to 500 | – | Cc1sc2c(c1C)C(c1ccc(NCCN3CCN(CCOc4ccc([C@@H]5c6ccc(O)cc6CC[C@@H]5c5ccccc5)cc4)CC3)cc1)=NC(Cc1ncco1)c1nnc(C)n1-2 (stereo partly drawn) [III-29] | < 50 | 50 to 500 | – | –
50 to 500 | – | Cc1sc2c(c1C)C(c1ccc(NCC3(F)CCN(CCOc4ccc([C@@H]5c6ccc(O)cc6CC[C@@H]5c5ccccc5)cc4)CC3)cc1)=NC(Cc1ncco1)c1nnc(C)n1-2 (stereo partly drawn) [III-30] | < 50 | 50 to 500 | – | –
– | 50 to 500 | Cc1sc2c(c1C)C(c1ccc(NCCN3CCN(CCOc4ccc([C@@H]5c6ccc(O)cc6CC[C@@H]5c5ccccc5)cc4)CC3)cc1)=NC(Cc1ncco1)c1nnc(C)n1-2 (stereo partly drawn) [III-32] | – | – | < 50 | 50 to 500

GI50 ([3]; Homo sapiens, MCF7, 144 h) [nM] | GI50 [3] [nM] | SMILES | GI50 ([1]; T-REx-293, 72 h) [nM] | GI50 ([2]; T-REx-293, 72 h) [nM] | GI50 [1] [nM] | GI50 [2] [nM]
50 to 500 | – | Cc1sc2c(c1C)C(c1ccc(NCC3CCN(CCOc4ccc([C@@H]5c6ccc(O)cc6CC[C@@H]5c5ccccc5)cc4)CC3)cc1)=NC(Cc1ncco1)c1nnc(C)n1-2 (stereo partly drawn) [III-33] | < 50 | 50 to 500 | – | –
50 to 500 | – | Cc1sc2c(c1C)C(c1ccc(NC3CCCN(CCOc4ccc([C@@H]5c6ccc(O)cc6CC[C@@H]5c5ccccc5)cc4)CC3)cc1)=NC(Cc1ncco1)c1nnc(C)n1-2 (stereo partly drawn) [III-34] | < 50 | 50 to 500 | – | –
< 50 | – | Cc1sc2c(c1C)C(c1ccc(N3CCC(N4CCN(CCOc5ccc([C@@H]6c7ccc(O)cc7CC[C@@H]6c6ccccc6)cc5)CC4)CC3)cc1)=NC(Cc1ncco1)c1nnc(C)n1-2 (stereo partly drawn) [III-35] | < 50 | 50 to 500 | – | –
< 50 | – | Cc1sc2c(c1C)C(c1ccc(N3CCC4(CCN(CCOc5ccc([C@@H]6c7ccc(O)cc7CC[C@@H]6c6ccccc6)cc5)C4)CC3)cc1)=NC(Cc1ncco1)c1nnc(C)n1-2 (stereo partly drawn) [III-36] | < 50 | 50 to 500 | – | –
< 50 | – | Cc1sc2c(c1C)C(c1ccc(NCCCN3CCN(CCOc4ccc([C@@H]5c6ccc(O)cc6CC[C@@H]5c5ccccc5)cc4)CC3)cc1)=NC(Cc1ncco1)c1nnc(C)n1-2 (stereo partly drawn) [III-37] | < 50 | 50 to 500 | – | –
< 50 | – | Cc1sc2c(c1C)C(c1ccc(N3CCC4(CCN(CCOc5ccc([C@@H]6c7ccc(O)cc7CC[C@@H]6c6ccccc6)cc5)CC4)CC3)cc1)=NC(Cc1ncco1)c1nnc(C)n1-2 (stereo partly drawn) [III-38] | < 50 | 50 to 500 | – | –
< 50 | – | Cc1sc2c(c1C)C(c1ccc(NC[C@@H]3CN(CCOc4ccc([C@@H]5c6ccc(O)cc6CC[C@@H]5c5ccccc5)cc4)CCO3)cc1)=NC(Cc1ncco1)c1nnc(C)n1-2 (stereo partly drawn) [III-39] | < 50 | 50 to 500 | – | –
< 50 | – | Cc1sc2c(c1C)C(c1ccc(N3C[C@H]4C[C@@H]3CN4CCOc3ccc([C@@H]4c5ccc(O)cc5CC[C@@H]4c4ccccc4)cc3)cc1)=NC(Cc1ncco1)c1nnc(C)n1-2 (stereo partly drawn) [III-40] | 50 to 500 | 50 to 500 | – | –
50 to 500 | – | Cc1sc2c(c1C)C(c1ccc(N3CCCN(CCCNCCOc4ccc([C@@H]5c6ccc(O)cc6CC[C@@H]5c5ccccc5)cc4)CC3)cc1)=NC(Cc1ncco1)c1nnc(C)n1-2 (stereo partly drawn) [III-42] | < 50 | 50 to 500 | – | –
50 to 500 | – | Cc1sc2c(c1C)C(c1ccc(N[C@H]3CC[C@H](CNCCOc4ccc([C@@H]5c6ccc(O)cc6CC[C@@H]5c5ccccc5)cc4)CC3)cc1)=NC(Cc1ncco1)c1nnc(C)n1-2 (stereo partly drawn) [III-43] | < 50 | 50 to 500 | – | –
50 to 500 | – | Cc1sc2c(c1C)C(c1ccc(N3CCCC(CN(C)CCOc4ccc([C@@H]5c6ccc(O)cc6CC[C@@H]5c5ccccc5)cc4)C3)cc1)=NC(Cc1ncco1)c1nnc(C)n1-2 (stereo partly drawn) [III-44] | 50 to 500 | 500 to 2500 | – | –
50 to 500 | – | Cc1sc2c(c1C)C(c1ccc(NCCC3CCCN(CCOc4ccc([C@@H]5c6ccc(O)cc6CC[C@@H]5c5ccccc5)cc4)C3)cc1)=NC(Cc1ncco1)c1nnc(C)n1-2 (stereo partly drawn) [III-45] | < 50 | 50 to 500 | – | –
< 50 | – | Cc1sc2c(c1C)C(c1ccc(N[C@H]3CCN(CCOc4ccc([C@@H]5c6ccc(O)cc6CC[C@@H]5c5ccccc5)cc4)C[C@@H]3F)cc1)=NC(Cc1ncco1)c1nnc(C)n1-2 (stereo partly drawn) [III-46] | < 50 | < 50 | – | –
50 to 500 | – | Cc1sc2c(c1C)C(c1ccc(N[C@H]3CCCCN(CCOc4ccc([C@@H]5c6ccc(O)cc6CC[C@@H]5c5ccccc5)cc4)C3)cc1)=NC(Cc1ncco1)c1nnc(C)n1-2 (stereo partly drawn) [III-47] | 50 to 500 | 50 to 500 | – | –
< 50 | – | Cc1sc2c(c1C)C(c1ccc(NCCCC3CCN(CCOc4ccc([C@@H]5c6ccc(O)cc6CC[C@@H]5c5ccccc5)cc4)CC3)cc1)=NC(Cc1ncco1)c1nnc(C)n1-2 (stereo partly drawn) [III-48] | < 50 | 50 to 500 | – | –
< 50 | – | Cc1sc2c(c1C)C(c1ccc(NC[C@H]3CC[C@H](CNCCOc4ccc([C@@H]5c6ccc(O)cc6CC[C@@H]5c5ccccc5)cc4)CC3)cc1)=NC(Cc1ncco1)c1nnc(C)n1-2 (stereo partly drawn) [III-49] | < 50 | 50 to 500 | – | –

SMILES | GI50 ([3]; Homo sapiens, MCF7, 144 h) [nM] | GI50 [3] [nM] | GI50 ([1]; T-REx-293, 72 h) [nM] | GI50 ([2]; T-REx-293, 72 h) [nM] | GI50 [1] [nM] | GI50 [2] [nM]
Cc1sc2c(c1C)C(c1ccc(N3C4CCC3CN(CCOc3ccc([C@@H]5c6ccc(O)cc6CC[C@@H]5c5ccccc5)cc3)C4)cc1)=NC(Cc1ncco1)c1nnc(C)n1-2 (stereo partly drawn) [III-31] | 50 to 500 | – | > 2500 | 50 to 500 | – | –
